Data reported in patent publication US11773188B2, “Chitosan-derived compositions” (Immunophotonics, Inc, priority 2012, dated 2023).
Where two headings read alike, the source gives them in different places.

What was measured:
[1] = system: DMBA-4 transplantable, metastatic mammary tumor; test: Different components of laser-assisted immunotherapy in metastatic breast tumor-bearing rats; format: in vivo, Wistar Furth rats; conditions: 0.25% ICG injection only, 0.2 mL intratumoral; 12 rats; all rats dying
Procedure: The laser-assisted immunotherapy system consisted of a near-infrared laser diode laser with a maximum output of 25 W; the laser-absorbing dye, indocyanine green; and the immunoadjuvant, glycated chitosan. When the primary tumor was 0.2 to 0.5 cm^3, treatment was initiated in the tumor-bearing rats. A solution of 0.2 mL of GC and/or ICG was injected into the center of the primary tumor in all groups. In rats receiving laser treatment, the injections occurred 2 h before irradiation, with animals anesthetized and the hair overlaying the tumor clipped. The laser settings were 2 W and 10 min, with the laser fiber tip maintained a distance of 4 mm from the overlying skin and the laser energy directed to the treatment sites through optical fibers. The animals were individually housed following treatment. In the survival studies, the breast or prostate tumor-bearing rats were observed daily and the three dimensions of each tumor were measured weekly. Female Wistar Furth rats (5 to 6 weeks of age, 100 to 125 g) were subcutaneously inoculated with the DMBA-4 transplantable, metastatic mammary tumor (10^5 viable tumor cells) into one inguinal fat pad of each rat. The primary tumor emerged 7 to 10 days after inoculation. […] The survival rate and primary and metastatic tumor profiles were determined for the individual components and various combinations of the components.

EMT6 mammary sarcoma = test: Photofrin-based photodynamic therapy and glycated chitosan in EMT6 model; format: in vivo, BALB/c mice; conditions: 8 mice
Procedure: In each model, BALB/c mice were subcutaneously inoculated with 10^6 viable tumor cells into the lower dorsal area. Tumors were treatment size (7 to 8 mm) after 7 days.
In the EMT6 mammary sarcoma model, treatment groups evaluated are detailed in the table below. Photofrin (Mont-Saint-Hilaire, Quebec, Canada) was prepared in 5% sterile dextrose to a 1 mg/mL concentration. A 5 mg/kg dose of photofrin was intravenously administered 24 h prior to irradiation. Animals were shielded from direct light immediately after the photosensitizer injection until 3 days after photodynamic treatment. Mice were restrained anaesthetized in holders exposing their backs during light treatment. Light (630 nm) was delivered through an 8 mm diameter liquid light guide. The power density was set at 100 mW/cm^2, for a total light dose of 60 J/cm^2. Immediately after light irradiation, if applicable, animals were administered a peritumoral dose of 0.5 or 1.5% glycated chitosan.

breast cancer = system: breast cancer
Procedure: In one exemplary clinical study, two breast cancer patients received cyclophosphamide weekly (after inCVAX treatment) at a dose of between 150 and 200 mg/m^2. […] The patients continued to receive the low dose chemotherapy.

[2] = system: Line 1 lung adenocarcinoma; conditions: no GC, 8 mice
Excerpt: To evaluate photodynamic therapy as a the method for direct tumor destruction in combination with glycated chitosan, a combination of photofrin- and meso-substituted tetra (meta-hydroxy-phenyl) chlorin-(mTHPC) based photodynamic therapy and glycated chitosan injection was been studied in the EMT6 mammary sarcoma and Line 1 lung adenocarcinoma mouse models, respectively. In each model, BALB/c mice were subcutaneously inoculated with 10^6 viable tumor cells into the lower dorsal area. Tumors were treatment size (7 to 8 mm) after 7 days.
A 0.1 mg/kg dose of mTHPC was intravenously administered 24 h prior to irradiation. Animals were shielded from direct light immediately after the photosensitizer injection until 3 days after photodynamic treatment. Mice were restrained anaesthetized in holders exposing their backs during light treatment. A 652 nm light from a 0.25 W diode laser was delivered through an 8 mm diameter liquid light guide. The power density was set at 110 mW/cm^2, fora total light dose of 30 J/cm^2.

[3] = weekly 150-200 mg/m^2 after inCVAX treatment, two breast cancer patients

CC1(C)C(/C=C/C=C/C=C/C=C2\N(CCCCS(=O)(=O)O)c3ccc4ccccc4c3C2(C)C)=[N+](CCCCS(=O)(=O)[O-])c2ccc3ccccc3c21 [indocyanine green]
survival after single component treatment [1]: average survival times similar to the control group

Photofrin
Number of Long-Term Surviving Mice (EMT6 mammary sarcoma; Non-Thermal Laser + Photofrin 5 mg/kg i.v. 24 h before 630 nm light 60 J/cm^2): 3 | Long-term Survival Rate (EMT6 mammary sarcoma; Non-Thermal Laser + Photofrin 5 mg/kg i.v., no GC): 37.5%

O=P1(N(CCCl)CCCl)NCCCO1 (centres unmarked) [cyclophosphamide]
adverse reactions (breast cancer; [3]): minimal adverse reactions | tumor response (breast cancer; [3]): responded well to the treatment with tumor shrinkage

CC(=O)O[C@H]1C(=O)[C@@]2(C)[C@H]([C@H](OC(=O)c3ccccc3)[C@]3(O)C[C@H](OC(=O)[C@H](O)[C@@H](NC(=O)c4ccccc4)c4ccccc4)C(C)=C1C3(C)C)[C@]1(OC(C)=O)CO[C@@H]1C[C@@H]2O [Paclitaxel]
tumor response (breast cancer; weekly 75 mg/m^2 after response to cyclophosphamide slowed): the response was very good with shrinking tumors

Oc1cccc(-c2c3nc(c(-c4cccc(O)c4)c4ccc([nH]4)c(-c4cccc(O)c4)c4nc(c(-c5cccc(O)c5)c5ccc2[nH]5)CC4)C=C3)c1 [mTHPC, meso-substituted tetra (meta-hydroxy-phenyl) chlorin]
Number of Long-Term Surviving Mice ([2]; Laser (652 nm, 30 J/cm^2) + mTHPC 0.1 mg/kg i.v. 24 h before): 0 | Long-term Survival Rate ([2]; Laser + mTHPC 0.1 mg/kg i.v.): 0.0%
